# Measurements from PMC7936271, “Discovery and characterization of bromodomain 2–specific inhibitors of BRDT” (Proceedings of the National Academy of Sciences of the …, 2021).
# “And” between values parts separate entries of the source, which are not always exact repeats. Equal entries are not always repeated. Where two headings read alike, the source gives them in different places.
# Columns and labels:
# [1] = Metabolic stability assay in mouse liver microsomes; assay type: in vitro ADME; details: for half-life at 2 μM: read-out: t1/2, min MLM
# Protocol: (§1) 2d) Metabolic stability assay in liver microsomes. […]
# (§2) The reactions are terminated by adding equivalent
# (§3) volume of ice-cold CH3OH and vortexed.
# (§4) temperature was ma i ntained at 40 °C.
# (§5) (acetonitrile containing 0.1% formic acid). […]
# [2] = Metabolic stability assay in human liver microsomes; assay type: in vitro ADME; details: for half-life at 2 μM: read-out: t1/2, min HLM
# Protocol: as §1, §2, §3, §4, §5
# various bromodomains = assay: BROMOscan bromodomain profiling on various bromodomains; assay type: binding; details: result in words
# Protocol: 2a) Bromodomain proximity assay. The AlphaScreenTM assay was performed following previous […]
# The plate was read on a Tecan Infinite […]
# the protein thermal shift assay.
# Orange dye at 5 × in a 10- µL reaction.
# Lightcycler 480 real-time PCR instrument.
# 2c) NanoBRET target engagement intracellular BET bromodomain assay. The NanoLuc -BRDT-BD1 […]
# (Promega, USA) to replace the corresponding BRD4 bromodomain sequences. The NanoBRET tracer […]
# The cells were then preincubated with tested
# 2d) Metabolic stability assay in liver microsomes. Compounds 3–10, 15, 17 and 20–2 2 (2.0 μM) were incubated in the mouse or human liver microsomes (0.5 mg protein/mL) at 37 °C. The samples are collected […]
# The reactions are terminated by adding equivalent volume of ice-cold CH3OH and vortexed. […]
# as §4
# (acetonitrile containing 0.1% formic acid).
# 2e) BROMOscan bromodomain profiling. BROMOscan bromodomain profiling was provided by […]
# against a proprietary reference immobilized ligand.
# BD2 = system: BD2; set-up: method as in PMID 32193360; details: BD2-specific inhibitor; cited from earlier work
# BRDT-BD1 [3] = system: BRDT-BD1
# BRDT-BD2 [4] = system: BRDT-BD2
# BRD4-BD1 [5] = system: BRD4-BD1
# BRD4-BD2 [6] = system: BRD4-BD2
# [7] = mice; cited from earlier work
# BRDT-BD2 [8] = target: T1, BRDT-BD2 (Homo sapiens, UniProt Q58F21); assay: AlphaScreen competition assay with biotinylated JQ1, BRDT-BD2; assay type: binding; set-up: BRDT-BD2, NP_001717.3 amino acid 269− 380; made in house; host or cells: E. coli NiCo21 (DE3); details: for BRDT-BD2 activity / affinity: result in words
# BRDT-BD2 [9] = target: BRDT-BD2; remark: listed apart in the source
# BRDT-BD1 [10] = target: BRDT-BD1; remark: listed apart in the source
# BRD4-BD2 [11] = target: BRD4-BD2; remark: listed apart in the source
# BRD4-BD1 [12] = target: BRD4-BD1; remark: listed apart in the source
# BRD2-BD2 [13] = target: BRD2-BD2
# BRD3-BD2 [14] = target: BRD3-BD2
# BRD4-BD2 [15] = target: BRD4-BD2; remark: listed apart in the source
# BRDT-BD2 [16] = target: BRDT-BD2; remark: listed apart in the source
# BRDT-BD1 [17] = target: T2, BRDT-BD1 (Homo sapiens, UniProt Q58F21); assay: AlphaScreen competition assay with biotinylated JQ1, BRDT-BD1; assay type: binding
# T2 construct: NP_001717.3 amino acid 21− 137; made in house; host or cells: E. coli NiCo21 (DE3)
# BRD4-BD1 [18] = target: T3, BRD4-BD1 (Homo sapiens, UniProt O60885); assay: AlphaScreen competition assay with biotinylated JQ1, BRD4-BD1; assay type: binding
# T3 construct: amino acid 44− 168; made in house; host or cells: E. coli NiCo21 (DE3)
# BRD2-BD2 [19] = target: T4, BRD2-BD2 (Homo sapiens, UniProt P25440); assay: BROMOscan BromoKdELECT competition binding, BRD2-BD2; details: BromoKdELECT dose-response; read-out: Binding Constants (Kd), nM BRD2-BD2
# T4 construct: purchased Eurofins DiscoverX Corp
# T4 sequence (P25440 344-453 limits assumed): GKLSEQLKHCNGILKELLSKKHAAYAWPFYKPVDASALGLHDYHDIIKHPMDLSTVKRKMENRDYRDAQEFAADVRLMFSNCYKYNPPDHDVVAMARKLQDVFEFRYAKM
# BRD3-BD2 [20] = target: T5, BRD3-BD2 (Homo sapiens, UniProt Q15059); assay: BROMOscan BromoKdELECT competition binding, BRD3-BD2; details: BromoKdELECT dose-response; read-out: Binding Constants (Kd), nM BRD3-BD2
# T5 construct: purchased Eurofins DiscoverX Corp
# T5 sequence (Q15059 306-415 limits assumed): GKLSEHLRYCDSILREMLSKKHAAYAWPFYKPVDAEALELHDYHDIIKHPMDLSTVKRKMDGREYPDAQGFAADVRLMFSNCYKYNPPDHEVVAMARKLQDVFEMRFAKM
# BRD4-BD2 [21] = target: T6, BRD4-BD2 (Homo sapiens, UniProt O60885); assay: BROMOscan BromoKdELECT competition binding, BRD4-BD2; set-up: purchased Eurofins DiscoverX Corp; details: BromoKdELECT dose-response; read-out: Binding Constants (Kd), nM BRD4-BD2
# BRDT-BD2 [22] = target: T1, BRDT-BD2; assay: BROMOscan BromoKdELECT competition binding, BRDT-BD2; set-up: purchased Eurofins DiscoverX Corp
# BRD4-BD2 [23] = target: T6, BRD4-BD2; assay: AlphaScreen competition assay with biotinylated JQ1, BRD4-BD2; assay type: binding; set-up: BD2, NP_055114.1 amino acid 333− 460; made in house; host or cells: E. coli NiCo21 (DE3)
# [24] = mouse liver microsomes, 2.0 μM, 37 °C, data >60 min are an extrapolated estimate
# [25] = human liver microsomes, 2.0 μM, 37 °C, data >60 min are an extrapolated estimate
# [26] = ratio of AlphaScreen IC50 values
# [27] = AlphaScreen, biotinylated JQ1 as ligand, NE: no effect at 20 µM
# [28] = AlphaScreen, biotinylated JQ1 as ligand
compound,measurement,setting,value
CNC(=O)c1ccc(C(=O)Nc2cc(NC(=O)c3ccc4c(c3)c(-c3ccc(N)cc3C)nn4C)ccc2C)cc1 [Compound 9],half-life at 2 μM,[1]; [24],1.53 h
same,mouse microsomal stability,[1]; result in words,greater stability in mouse liver microsomes (MLMs) over other hits
same,half-life at 2 μM,[2]; [25],2.5 h
same,human microsomal stability,[2]; result in words,high metabolic stability
same,BROMOscan bromodomain profile,various bromodomains,very weak binding to two bromodomains outside of the BET subfamily
CC(=O)Nc1c(F)cc(C(=O)N[C@H]2CC[C@H](O)CC2)cc1O[C@@H](C)c1ccccc1 [GSK046],selectivity over BD1,BD2,> 300 fold
"Cc1sc2c(c1C)C(c1ccc(Cl)cc1)=N[C@@H](CC(=O)OC(C)(C)C)c1nnc(C)n1-2 [JQ1, reference compound]",ΔTm at 25 µM,BRDT-BD1 [3],3.48 °C
same,ΔTm at 25 µM,BRDT-BD2 [4],10.3 °C
same,ΔTm at 25 µM,BRD4-BD1 [5],7.84 °C
same,ΔTm at 25 µM,BRD4-BD2 [6],7.43 °C
same,half-life at 2 μM,[1]; [24],0.25 h
same,half-life at 2 μM,[2]; [25],0.1 h
same,bioavailable across the blood-testis boundary,[7],100%
same,BRDT-BD2 vs. BRD4-BD2,BRDT-BD2 [8]; [26],0.4
CC(=O)Nc1cc(NC(=O)c2ccc3c(c2)c(-c2ccc(N)cc2C)nn3C)ccc1C [Compound 20],IC50,BRDT-BD2 [9],8 nM
same,IC50,BRDT-BD1 [10],> 10000 nM and 15800 nM
same,IC50,BRD4-BD2 [11],12 nM
same,IC50,BRD4-BD1 [12],10400 nM
same,Kd,BRD2-BD2 [13],7.8 nM
same,Kd,BRD3-BD2 [14],2 nM
same,Kd,BRD4-BD2 [15],1.6 nM
same,Kd,BRDT-BD2 [16],1.3 nM
same,IC50,BRDT-BD1 [17]; [27],15800 nM
same,IC50,BRD4-BD1 [18]; [27],10400 nM
same,"t1/2, min MLM",[1]; [24],1.2 h
same,"t1/2, min HLM",[2]; [25],6.17 h
same,Kd,BRD2-BD2 [19],7.8 nM
same,Kd,BRD3-BD2 [20],2 nM
same,BROMOscan bromodomain profile,various bromodomains,potent and selective binding to only the second bromodomains within the BET subfamily
same,Kd,BRD4-BD2 [21],1.6 nM
same,more potent than JQ1 at binding BRDT-BD2,BRDT-BD2 [22]; BromoKdELECT dose-response curves,more than 20 fold
same,Kd,"BRDT-BD2 [22]; BromoKdELECT dose-response, read-out: Binding Constants (Kd), nM BRDT-BD2",1.3 nM
same,BRD4-BD2 vs. BRD4-BD1 (BRD4-BD2 selectivity),BRD4-BD2 [23],860
same,IC50,BRD4-BD2 [23]; [28],12 nM
same,BRDT-BD2 vs. BRDT-BD1 (BRDT-BD2 selectivity),BRDT-BD2 [8],"2,000"
same,IC50,BRDT-BD2 [8]; [28],8 nM
same,BRDT-BD2 activity / affinity,BRDT-BD2 [8]; AlphaScreen,no loss in activity
same,BRDT-BD2 vs. BRD4-BD2,BRDT-BD2 [8]; [26],1.5
CNC(=O)c1ccc(C(=O)Nc2cc(NC(=O)c3ccc4c(c3)c(-c3cc5ccccc5n3C)nn4C)ccc2C)cc1 [Compound 8],IC50,BRDT-BD2 [9],13 nM
same,% inhibition at 10 µM,BRDT-BD1 [10],11%
same,IC50,BRDT-BD1 [10],> 10000 nM
same,IC50,BRD4-BD2 [11],31 nM
same,IC50,BRD4-BD1 [12],26200 nM
same,IC50,BRDT-BD1 [17],> 10000 nM
same,inhibition at 10 µM,BRDT-BD1 [17]; read-out: Inhibition at 10 µM for BRDT-BD1,11%
same,IC50,BRD4-BD1 [18],26200 nM
same,half-life at 2 μM,[1]; [24],0.85 h
same,half-life at 2 μM,[2]; [25],2.5 h
same,IC50,BRD4-BD2 [23],31 nM
same,BRD4-BD2 vs. BRD4-BD1 (BRD4-BD2 selectivity),BRD4-BD2 [23]; [26],850
same,IC50,BRDT-BD2 [8],13 nM
same,BRDT-BD2 activity / affinity,BRDT-BD2 [8]; AlphaScreen,low nanomolar affinity
same,BRDT-BD2 vs. BRD4-BD2,BRDT-BD2 [8]; [26],2.4
same,BRDT-BD2 vs. BRDT-BD1 (BRDT-BD2 selectivity),BRDT-BD2 [8]; [26],>750
